The record followed here is patent publication US20230041563A1, “N-(1,3,4-OXADIAZOL-2-YL)ARYLCARBOXAMIDES OR SALTS THEREOF, PREPARATION METHODS, HERBICIDAL COMPOSITIONS AND USES THEREOF” (priority 2018, published 2023).

This experiment deals with weeds. The experiment in a line: Actual control effects and combined effects of mixtures of active ingredients (i) and (ii), stem-leaf treatment, Gowing method. Format: in vivo. As for the experimental part: According to the actual control effect and the property of the herbicides, the balance of the formula and other factors, the optimal ratio was determined. In the calculation formula: X represents the fresh weight inhibition rate when the active ingredient (i) is used in an amount of P; and Y represents the fresh weight inhibition rate when the active ingredient (ii) is used in an amount of Q. The statistical results are shown in Tables 9-11 below.

Where [1] appears, read: 480 h, Echinochloa phyllopogon, (ii) 3 g a.i./mu, stem-leaf treatment, 20 days, read-out: Control effect of (ii) alone at corresponding dose.
[2] abbreviates: Echinochloa phyllopogon, (ii) 3 g a.i./mu, 20 days.
[3] abbreviates: Echinochloa phyllopogon, (ii) 0.6 g a.i./mu, 20 days.
Setting [4] is: Echinochloa phyllopogon, (ii) 0.6 g a.i./mu, stem-leaf treatment, 20 days.
The mark [5] stands for this setting: Echinochloa phyllopogon, (ii) 8 g a.i./mu, 20 days.
Where [6] appears, read: 480 h, Echinochloa phyllopogon, (ii) 0.6 g a.i./mu, stem-leaf treatment, 20 days, read-out: Control effect of (ii) alone at corresponding dose.
Where [7] appears, read: 480 h, Echinochloa phyllopogon, (ii) 0.2 g a.i./mu, stem-leaf treatment, 20 days, read-out: Control effect of (ii) alone at corresponding dose.
The mark [8] stands for this setting: 480 h, Echinochloa phyllopogon, (ii) 8 g a.i./mu, stem-leaf treatment, 20 days, read-out: Control effect of (ii) alone at corresponding dose.
[9] abbreviates: Echinochloa phyllopogon, (ii) 0.2 g a.i./mu, 20 days.
Setting [10] is: 480 h, Echinochloa phyllopogon, (ii) 15 g a.i./mu, stem-leaf treatment, 20 days, read-out: Control effect of (ii) alone at corresponding dose.
The mark [11] stands for this setting: Echinochloa phyllopogon, (ii) 15 g a.i./mu, 20 days.
Where [12] appears, read: Monochoria vaginalis, (ii) 1 g a.i./mu, 20 days.
Where [13] appears, read: Pontederia vaginalis, 480 h, Monochoria vaginalis, (ii) 0.5 g a.i./mu, 20 days, read-out: Control effect of (ii) alone at corresponding dose.
Setting [14] is: Monochoria vaginalis, (ii) 3 g a.i./mu, 20 days.
[15] abbreviates: Pontederia vaginalis, 480 h, Monochoria vaginalis, (ii) 3 g a.i./mu, stem-leaf treatment, 20 days, read-out: Control effect of (ii) alone at corresponding dose.
[16] abbreviates: Pontederia vaginalis, 480 h, Monochoria vaginalis, (ii) 5 g a.i./mu, stem-leaf treatment, 20 days, read-out: Control effect of (ii) alone at corresponding dose.
The mark [17] stands for this setting: 480 h, Echinochloa phyllopogon, (ii) 0.6 g a.i./mu, 20 days, read-out: Control effect of (ii) alone at corresponding dose.
[18] abbreviates: Pontederia vaginalis, 480 h, read-out: Control effect of (ii) alone at corresponding dose.

Where two headings read alike, the source gives them in different places.

For `CCc1cccc(C)c1N(C(=O)CCl)C(C)COC` (stereo not drawn) [Metolachlor], the pest or weed control at 45 g/ha stood at 15.3% (480 h, Digitaria sanguinalis, (ii) 3 g a.i./mu, stem-leaf treatment, 20 days, read-out: Control effect of (ii) alone at corresponding dose) and 7.8% under setting [1]. Also, the pest or weed control at […] (480 h, Echinochloa phyllopogon, (ii) 15 g a.i./mu, 20 days, read-out: Control effect of (ii) alone at corresponding dose) is 15.3%. Also, the “Control effect of (ii) alone at corresponding dose” value (“Control effect of (ii) alone” below) under setting [2] came to 7.8%.

As to `C[C@@H](Oc1ccc(Oc2nc3ccc(Cl)cc3o2)cc1)C(=O)N(C)c1ccccc1F` [Metamifop], the “Control effect of (ii) alone” value was found to be 6.8% under setting [3]; 6.8% under setting [4]; 60.9% under setting [5]; 60.9% (Echinochloa phyllopogon, (ii) 8 g a.i./mu, stem-leaf treatment, 20 days).

As to `CC(C)c1ccc(NC(=O)N(C)C)cc1` [Isoproturon], the pest or weed control at 9 g/ha under setting [6] worked out at 20.3%. For the same molecule, the pest or weed control at 45 g/ha under setting [1] came out at 40.2%. For the same molecule, the “Control effect of (ii) alone” value is, setting by setting: under setting [3], 20.3%; under setting [2], 40.2%.

Take `CCOc1cc(Oc2ccc(C(F)(F)F)cc2Cl)ccc1[N+](=O)[O-]` [Oxyfluorfen]: the pest or weed control at 3 g/ha under setting [7] was 6.7%. The pest or weed control at 120 g/ha under setting [8] turned out to be 76.5%. Further, the “Control effect of (ii) alone” value reads like this: under setting [9], 6.7%; under setting [5], 76.5%.

In the case of `CC(C)Oc1cc(-n2nc(C(C)(C)C)oc2=O)c(Cl)cc1Cl` [Oxadiazon], the pest or weed control at 45 g/ha under setting [1] stood at 14.3%. Besides, the pest or weed control at […] under setting [10] was 41.3%. For the same molecule, the “Control effect of (ii) alone” value is given as 14.3% under setting [2] and 41.3% under setting [11].

Consider Oxadiargyl, for which the “Control effect of (ii) alone” value was 3.4% under setting [3]; 3.4% under setting [4]; 35.3% under setting [11]; 35.3% (Echinochloa phyllopogon, (ii) 15 g a.i./mu, stem-leaf treatment, 20 days).

Regarding `COc1nc(OC)nc(C(=O)c2cccc(F)c2N(C)S(=O)(=O)C(F)F)n1` [Triafamone], the “Control effect of (ii) alone” value by setting is: (Monochoria vaginalis, (ii) 0.5 g a.i./mu, 20 days) 16.3%; (Monochoria vaginalis, (ii) 0.5 g a.i./mu, stem-leaf treatment, 20 days) 16.3%; under setting [12], 29.6%; (Monochoria vaginalis, (ii) 1 g a.i./mu, stem-leaf treatment, 20 days) 29.6%.

`Cn1nc(C(F)(F)F)c(CS(=O)(=O)C2=NOC(C)(C)C2)c1OC(F)F` [Pyroxasulfone]: the “Control effect of (ii) alone” value (Monochoria vaginalis, (ii) 9 g a.i./mu, 20 days) stood at 34.5%. In addition, the pest or weed control at […] under setting [13] came out at 6.3%. Besides, the pest or weed control at 135 g/ha (Pontederia vaginalis, 480 h, Monochoria vaginalis, (ii) 9 g a.i./mu, stem-leaf treatment, 20 days, read-out: Control effect of (ii) alone at corresponding dose) is 34.5%.

With `Nc1c(Cl)c(F)nc(OCC(=O)O)c1Cl` [Fluroxypyr], under setting [14], the “Control effect of (ii) alone” value came to 60.3%. Further, under setting [15], the pest or weed control at 45 g/ha came to 60.3%. Moreover, the pest or weed control at 60 g/ha (Pontederia vaginalis, 480 h, Monochoria vaginalis, (ii) 4 g a.i./mu, 20 days, read-out: Control effect of (ii) alone at corresponding dose) was found to be 70.4%. In addition, under setting [16], the pest or weed control at 75 g/ha stood at 73.4%.

In the case of `COc1c(Cl)ccc(-c2nc(C(=O)OCc3ccccc3)c(Cl)c(N)c2F)c1F` [Florpyrauxifen-benzyl], the “Control effect of (ii) alone” value runs as follows: under setting [3], 21.5%; under setting [4], 21.5%; under setting [2], 70.5%; (Echinochloa phyllopogon, (ii) 3 g a.i./mu, stem-leaf treatment, 20 days) 70.5%.

For `CCCOCCN(C(=O)CCl)c1c(CC)cccc1CC` [Pretilachlor], under setting [1], the pest or weed control at 45 g/ha is 15.2%. In addition, the pest or weed control at […] under setting [10] turned out to be 43.2%. Also, the “Control effect of (ii) alone” value by setting is: under setting [2], 15.2%; under setting [11], 43.2%.

In the case of `Cc1cc(Cl)ccc1OCC(=O)O` [MCPA], the “Control effect of (ii) alone” value by setting is: under setting [14], 28.2%; (Monochoria vaginalis, (ii) 3 g a.i./mu, stem-leaf treatment, 20 days) 28.2%.

Regarding `CCOC(=O)c1cnn(C)c1S(=O)(=O)NC(=O)Nc1nc(OC)cc(OC)n1` [Pyrazosulfuron-ethyl], under setting [12], the “Control effect of (ii) alone” value worked out at 75.6%. Moreover, the pest or weed control at 9 g/ha (Pontederia vaginalis, 480 h, Monochoria vaginalis, (ii) 0.6 g a.i./mu, 20 days, read-out: Control effect of (ii) alone at corresponding dose) is 54.5%. Besides, the pest or weed control at 15 g/ha (Pontederia vaginalis, 480 h, Monochoria vaginalis, (ii) 1 g a.i./mu, stem-leaf treatment, 20 days, read-out: Control effect of (ii) alone at corresponding dose) came to 75.6%.

For `C#CCN(C)c1c(C#N)cnn1-c1nn2c(c1Cl)CCCC2` [Pyraclonil], the “Control effect of (ii) alone” value runs as follows: (Sagittaria trifolia L., (ii) 0.6 g a.i./mu, 20 days) 9.3%; (Sagittaria trifolia L., (ii) 15 g a.i./mu, 20 days) 72.5%; (Sagittaria trifolia, (ii) 15 g a.i./mu, stem-leaf treatment, 20 days) 72.5%.

With `CC(C)=C1OC(=O)N(c2cc(OC3CCCC3)c(Cl)cc2F)C1=O` [Pentoxazone], the “Control effect of (ii) alone” value (Monochoria vaginalis, (ii) 10 g a.i./mu, 20 days) was 43.6%. Also, under setting [13], the pest or weed control at […] was 6.4%. Besides, where the note is “Pontederia vaginalis, 480 h, Monochoria vaginalis, (ii) 10 g a.i./mu, stem-leaf treatment, 20 days, read-out: Control effect of (ii) alone at corresponding dose”, the pest or weed control at 150 g/ha was 43.6%.

Consider `CCNc1nc(Cl)nc(NC(C)(C)C)n1` [Terbuthylazine], for which the pest or weed control at 9 g/ha under setting [17] was 0.95%. Under setting [10], the pest or weed control at […] worked out at 18.6%. Further, the “Control effect of (ii) alone” value under setting [11] is 18.6%.

Regarding `COc1cc(OC)nc(Oc2cccc(Oc3nc(OC)cc(OC)n3)c2C(=O)O)n1` [Bispyribac-sodium], the pest or weed control at 9 g/ha (480 h, Cyperus difformis, (ii) 0.6 g a.i./mu, 20 days, read-out: Control effect of (ii) alone at corresponding dose) came out at 39.5%. Moreover, the pest or weed control at 15 g/ha (480 h, Cyperus difformis, (ii) 1 g a.i./mu, stem-leaf treatment, 20 days, read-out: Control effect of (ii) alone at corresponding dose) was 70.4%. The “Control effect of (ii) alone” value (Cyperus difformis, (ii) 1 g a.i./mu, 20 days) came to 70.4%.

Turning to `CCCOP(=S)(OCCC)SCC(=O)N1CCCCC1C` (stereo not drawn) [Piperophos], the “Control effect of (ii) alone” value under setting [14] turned out to be 9.9%. Under setting [18], the pest or weed control at 45 g/ha worked out at 9.9% and the pest or weed control at 450 g/ha is 41.2%.

With `CSc1nnc(C(C)(C)C)c(=O)n1N` [Metribuzin], the pest or weed control at 9 g/ha under setting [17] amounted to 9.1%. Further, under setting [1], the pest or weed control at 45 g/ha was found to be 32.3%. In addition, the “Control effect of (ii) alone” value under setting [2] came to 32.3%.

With `CCC(C)n1c(=O)[nH]c(C)c(Br)c1=O` (stereo not drawn) [Bromacil], the pest or weed control at 45 g/ha under setting [1] was 12.8%. For the same molecule, the pest or weed control at 450 g/ha (480 h, Echinochloa phyllopogon, (ii) 30 g a.i./mu, 20 days, read-out: Control effect of (ii) alone at corresponding dose) came out at 59.7%. Further, the “Control effect of (ii) alone” value under setting [2] was 12.8%.

As for `COc1c(Cl)ccc(Cl)c1C(=O)O` [Dicamba], the “Control effect of (ii) alone” value reads like this: under setting [14], 50.9%; (Monochoria vaginalis, (ii) 5 g a.i./mu, 20 days) 70.2%. Besides, the pest or weed control at 45 g/ha under setting [15] turned out to be 50.9%. Under setting [16], the pest or weed control at 75 g/ha was 70.2%.

As for `CCC(=O)Nc1ccc(Cl)c(Cl)c1` [Propanil], the pest or weed control at 27 g/ha (480 h, Cyperus difformis, (ii) 1.8 g a.i./mu, 20 days, read-out: Control effect of (ii) alone at corresponding dose) was found to be 9.2%. Besides, the pest or weed control at […] (480 h, Cyperus difformis, (ii) 15 g a.i./mu, stem-leaf treatment, 20 days, read-out: Control effect of (ii) alone at corresponding dose) worked out at 46.2%. For the same molecule, the “Control effect of (ii) alone” value (Cyperus difformis, (ii) 15 g a.i./mu, 20 days) is 46.2%.

For `Cc1ccc(NC(=O)N(C)C)cc1Cl` [Chlortoluron], under setting [6], the pest or weed control at 9 g/ha turned out to be 18.3%. For the same molecule, the pest or weed control at […] under setting [10] was determined as 57.6%. Also, the “Control effect of (ii) alone” value by setting is: under setting [3], 18.3%; under setting [11], 57.6%.

As to `CCOC(=O)C(Cl)Cc1cc(-n2nc(C)n(C(F)F)c2=O)c(F)cc1Cl` (stereo not drawn) [Carfentrazone-ethyl], the pest or weed control at 3 g/ha under setting [7] was 5.3%. The pest or weed control at 120 g/ha under setting [8] came to 73.6%. Moreover, the “Control effect of (ii) alone” value is, setting by setting: under setting [9], 5.3%; under setting [5], 73.6%.
